Drawing on patent US8541611B2 (dated 2013), this text covers melting point for one compound.

SMILES strings stand for the structures.

`CC(C)N(C)S(=O)(=O)NC(=O)c1cc(N=C=O)c(F)cc1Cl` gave a melting point of 144 to 148 °C.
